The source of these data is patent publication US11542262B2, “Phosphatidylinositol 3-kinase inhibitors” (NANJING ZHENGXIANG PHARMACEUTICALS CO., LTD., priority 2019, dated 2023).

A short description of one data set: Pharmacokinetics in dogs. The format is in vivo. Conditions: IV bolus at 1 mg/kg and PO at 5 mg/kg; for bioavailability / clearance / half-life: male, dog, plasma; for bioavailability: beagle, oral, 5 mg/kg, read-out: F (%) oral bioavailability. As for the experimental part:
Dosing solutions were prepared at 1 mg/mL in 5% DMSO/40% PEG400/55% water. A dosing solution was administered to male beagle dogs (Approximately 9-14 kg, 3 dogs each group) via intravenous (IV) bolus at 1 mg/kg and by oral gavage (PO) at 5 mg/kg. The dosing volume was 1 mL/kg for IV administration and 5 mL/kg for oral gavage. Blood samples (˜0.3 mL each time point) were collected into tubes containing potassium ethylenediaminetetraacetic acid (K2EDTA) as the anticoagulant at 0.033, 0.083, 0.25, 0.5, 1, 2, 4, 8 and 24 hours post dose for IV administration and 0.083, 0.25, 0.5, 1, 2, 4, 8 and 24 hours post dose for PO administration. The blood samples were then centrifuged for 5 minutes in a centrifuge refrigerated at 4° C. The resultant plasma samples were analyzed using LC/MS/MS to determine concentrations of a test compound. Non-compartmental model with WinNonlin (Phoenix™, version 6.1) software was used to calculate pharmacokinetic (PK) parameters.

The target of another data set is T1, PI3K gamma (Mus musculus, UniProt Q9JHG7).
T1 construct: endogenous in cells; host or cells: RAW264.7
The data set is described as follows: Raw264.7 cell assay: phosphorylation of AKT in C5a stimulated RAW264.7 cells (AlphaLISA). As to conditions: pAKT, read-out: PI3K gamma Raw264.7 cell (nM) cellular activity (IC50). The format is cell-based. A digest of the protocol: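 Passage-15 RAW264.7 cells were plated and rested 2 h at 37 °C, then given compound for 30 min at 37 °C before C5a stimulation. Lysates went to phospho-AKT AlphaLISA with a 2 h dark incubation at 25 °C. IC50 came from a four-parameter logistic fit of inhibition against log concentration.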
For orientation: In Alpha technology, singlet oxygen from a donor bead excites a nearby acceptor bead.

The next data set has as its target PI3Kγ (Homo sapiens, UniProt P48736). The data set is described as follows: ADP-Glo luminescent assay, enzymatic activity of PI3K gamma. Conditions: ATP 25 μM; read-out: PI3K gamma (nM) inhibitory activity (IC50). Format: biochemical. (ADP-Glo turns the ADP formed in a reaction into a luminescent signal.)
The nature of data set [1]: Pharmacokinetics in mice (plasma and brain concentrations). The format is in vivo, CD-1 mice. As to conditions: male CD1 mouse, oral gavage 20 mg/kg. As for the experimental part: The dosing solution was administered to male CD-1 mice via oral gavage (PO) at 20 mg/kg. Blood and brain tissue samples were collected at 0.5, 2 and 8 hours post-dose. The blood samples were then centrifuged for 5 minutes in a centrifuge refrigerated at 4° C. The brain samples after blood removal were homogenized in water.

The next data set relates to MOG35-55 induced EAE. The data set is described as follows: Efficacy on MOG35-55 induced EAE. The format is in vivo, C57BL/6 mice. As to conditions: 20 mg/kg and 80 mg/kg BID PO, 14 days from day 10, FIG. 2.
The next data set deals with 4T1 cells. The data set is described as follows: Anti-tumor efficacy in 4T1 syngeneic mouse tumor model. The format is in vivo. Conditions: 4T1 in BALB/c mice, oral gavage 100 mg/kg, FIG. 1. How it is done: BALB/c mice were inoculated subcutaneously at the fourth mammary pad with 4T1 cells for tumor development. On the next day after tumor cell inoculation, the mice were assigned into 2 groups using stratified randomization with 10 mice in each group based upon their body weight and inoculation order. […] The tumor sizes were measured three times per week during the treatment. Tumor volume was calculated by the formula: length×width^2/2.

Read-outs that look alike come from different tables or passages of the source.

T1 sequence (Q9JHG7 whole entry): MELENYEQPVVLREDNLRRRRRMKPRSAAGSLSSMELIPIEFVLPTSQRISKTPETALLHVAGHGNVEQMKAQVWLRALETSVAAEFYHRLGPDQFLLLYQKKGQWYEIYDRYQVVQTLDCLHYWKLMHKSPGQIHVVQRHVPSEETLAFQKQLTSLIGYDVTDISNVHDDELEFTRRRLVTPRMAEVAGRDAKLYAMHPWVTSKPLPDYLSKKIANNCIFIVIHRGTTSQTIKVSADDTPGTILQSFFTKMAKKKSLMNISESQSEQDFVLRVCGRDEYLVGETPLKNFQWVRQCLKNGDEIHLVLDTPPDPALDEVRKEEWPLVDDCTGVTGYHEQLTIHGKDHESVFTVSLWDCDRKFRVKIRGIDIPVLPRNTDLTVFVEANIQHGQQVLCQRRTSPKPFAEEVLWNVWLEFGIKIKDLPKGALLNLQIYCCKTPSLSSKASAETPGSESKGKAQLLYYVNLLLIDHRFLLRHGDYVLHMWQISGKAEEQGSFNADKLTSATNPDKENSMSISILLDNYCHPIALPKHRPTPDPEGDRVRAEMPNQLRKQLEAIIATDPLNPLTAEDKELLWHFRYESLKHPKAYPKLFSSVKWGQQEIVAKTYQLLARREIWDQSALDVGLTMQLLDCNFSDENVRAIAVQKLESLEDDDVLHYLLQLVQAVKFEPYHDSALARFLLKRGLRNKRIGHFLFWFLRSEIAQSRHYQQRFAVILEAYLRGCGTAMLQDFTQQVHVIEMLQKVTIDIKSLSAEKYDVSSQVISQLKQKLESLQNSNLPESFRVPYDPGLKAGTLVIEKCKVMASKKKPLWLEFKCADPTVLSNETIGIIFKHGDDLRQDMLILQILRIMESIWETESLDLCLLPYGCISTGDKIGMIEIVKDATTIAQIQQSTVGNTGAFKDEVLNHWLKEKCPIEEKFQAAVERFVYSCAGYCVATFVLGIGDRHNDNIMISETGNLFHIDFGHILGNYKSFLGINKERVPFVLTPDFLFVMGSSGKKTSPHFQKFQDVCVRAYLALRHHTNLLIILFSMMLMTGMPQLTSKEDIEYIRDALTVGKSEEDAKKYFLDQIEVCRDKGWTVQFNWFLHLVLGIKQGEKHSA
T1 sequence (Q5SW28 whole entry partner): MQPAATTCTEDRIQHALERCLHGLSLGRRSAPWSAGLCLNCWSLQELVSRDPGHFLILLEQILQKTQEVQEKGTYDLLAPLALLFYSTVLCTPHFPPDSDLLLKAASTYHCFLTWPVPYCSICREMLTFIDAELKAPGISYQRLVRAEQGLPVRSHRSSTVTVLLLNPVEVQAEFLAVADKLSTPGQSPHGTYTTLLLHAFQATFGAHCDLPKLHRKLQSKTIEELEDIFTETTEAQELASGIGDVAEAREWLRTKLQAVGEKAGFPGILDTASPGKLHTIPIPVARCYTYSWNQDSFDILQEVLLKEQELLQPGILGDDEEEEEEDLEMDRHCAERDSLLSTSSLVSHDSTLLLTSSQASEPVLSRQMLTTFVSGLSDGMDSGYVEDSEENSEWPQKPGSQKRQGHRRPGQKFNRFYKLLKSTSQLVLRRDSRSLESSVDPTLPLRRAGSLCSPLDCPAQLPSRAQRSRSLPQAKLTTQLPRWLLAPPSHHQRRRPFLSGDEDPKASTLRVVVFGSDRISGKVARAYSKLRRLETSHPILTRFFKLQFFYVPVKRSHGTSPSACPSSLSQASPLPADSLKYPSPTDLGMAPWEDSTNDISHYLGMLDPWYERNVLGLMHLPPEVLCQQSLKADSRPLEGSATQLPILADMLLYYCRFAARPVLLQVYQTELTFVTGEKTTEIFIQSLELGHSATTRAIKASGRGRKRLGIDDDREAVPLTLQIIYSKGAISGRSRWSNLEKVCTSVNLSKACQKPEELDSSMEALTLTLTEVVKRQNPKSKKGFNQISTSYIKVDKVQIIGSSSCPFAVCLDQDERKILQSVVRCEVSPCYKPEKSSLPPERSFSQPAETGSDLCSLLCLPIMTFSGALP
Chain of PI3Kγ (P48736 whole entry, species assumed): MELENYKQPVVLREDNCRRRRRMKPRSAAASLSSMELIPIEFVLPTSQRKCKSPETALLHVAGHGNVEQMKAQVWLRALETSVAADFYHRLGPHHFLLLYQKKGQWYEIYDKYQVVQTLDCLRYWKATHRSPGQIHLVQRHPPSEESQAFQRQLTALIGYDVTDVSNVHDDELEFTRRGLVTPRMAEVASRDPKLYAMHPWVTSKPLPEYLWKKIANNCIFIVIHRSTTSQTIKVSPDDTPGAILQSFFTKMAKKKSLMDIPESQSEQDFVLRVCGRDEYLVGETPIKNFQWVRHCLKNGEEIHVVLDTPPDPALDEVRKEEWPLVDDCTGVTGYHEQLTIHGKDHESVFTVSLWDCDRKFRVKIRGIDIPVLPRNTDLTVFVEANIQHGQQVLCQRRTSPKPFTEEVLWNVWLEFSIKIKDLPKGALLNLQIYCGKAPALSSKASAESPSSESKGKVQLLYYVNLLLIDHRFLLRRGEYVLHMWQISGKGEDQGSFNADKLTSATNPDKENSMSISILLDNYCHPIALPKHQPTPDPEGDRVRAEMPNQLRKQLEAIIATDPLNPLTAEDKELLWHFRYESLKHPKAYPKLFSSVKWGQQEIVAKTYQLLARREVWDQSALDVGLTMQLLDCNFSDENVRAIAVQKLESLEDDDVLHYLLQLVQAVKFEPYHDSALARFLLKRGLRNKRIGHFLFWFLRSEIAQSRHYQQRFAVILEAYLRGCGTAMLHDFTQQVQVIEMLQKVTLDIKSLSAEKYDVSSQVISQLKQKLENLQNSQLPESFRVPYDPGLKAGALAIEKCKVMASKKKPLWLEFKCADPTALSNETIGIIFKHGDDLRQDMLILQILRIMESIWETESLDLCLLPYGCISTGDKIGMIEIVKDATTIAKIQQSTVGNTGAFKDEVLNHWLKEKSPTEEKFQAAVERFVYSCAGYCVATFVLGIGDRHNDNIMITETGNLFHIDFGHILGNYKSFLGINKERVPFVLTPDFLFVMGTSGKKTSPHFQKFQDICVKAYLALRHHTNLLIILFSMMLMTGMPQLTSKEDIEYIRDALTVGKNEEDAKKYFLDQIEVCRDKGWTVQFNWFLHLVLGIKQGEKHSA

As for `CC(=O)Nc1nc(C)c(-c2cc3c(c(NS(C)(=O)=O)n2)C(=O)N([C@@H](C)C2CC2)C3)s1` [Compound 20, (S)-N-(5-(2-(1-cyclopropylethyl)-4-(methylsulfonamido)-3-oxo-2,3-dihydro-1H-pyrrolo[3,4-c]pyridin-6-yl)-4-methylthiazol-2-yl)acetamide], in the data set “Pharmacokinetics in dogs” (beagle dogs), the “F (%) oral bioavailability” value was determined as 108%; the “Vssobs” value is 2.1 L/kg; the clearance is 0.366 L/h/kg; the half-life (as a rule, how long it takes for the measured level to halve) was 7.2 h. Besides, the bioavailability in “Pharmacokinetics in dogs” is 107%. The IC50 – broadly, the midpoint of a concentration-inhibition curve – on PI3K gamma turned out to be 4.3 nM. Also, the IC50 on PI3Kγ was determined as 1.3 nM.
Take `CC(=O)Nc1nc(C)c(-c2cc3c(c(N4CCOCC4)n2)C(=O)N([C@@H](C)C2CC2)C3)s1` [Compound 34, (S)-N-(5-(2-(1-cyclopropylethyl)-4-morpholino-3-oxo-2,3-dihydro-M-pyrrolo[3,4-c]pyridin-6-yl)-4-methylthiazol-2-yl)acetamide]: in data set [1] (CD-1, brain, read-out: Brain), the concentration at 0.5 h stood at 2490 ng/g, the concentration at 2 h is 473 ng/g and the concentration at 8 h stood at 454 ng/g. Also, in data set [1] (CD-1, plasma, read-out: Plasma), the concentration at 0.5 h worked out at 2.8 µg/mL, the concentration at 2 h amounted to 1.21 µg/mL and the concentration at 8 h was 1.37 µg/mL. Besides, in the data set “Pharmacokinetics in dogs” (beagle dogs), the “Vssobs” value is given as 2.7 L/kg, the clearance turned out to be 0.27 L/h/kg and the half-life was 9.1 h. In addition, in “Pharmacokinetics in dogs”, the bioavailability is more than 68%. For the same compound, the IC50 at PI3K gamma is 1.6 nM. Moreover, the “clinical disability symptom (EAE clinical score)” value in the data set on MOG35-55 induced EAE is “significantly ameliorated the clinical disability symptom”. For the same compound, the “tumor growth (tumor volume)” value in the data set on 4T1 cells is “significantly suppressed tumor growth”.
